In assay [1] the target is AEA-DA lipid probe targets in Neuro2a cells (Mus musculus, UniProt Q8VCL2). The following applies: competitor 25 μM.
In assay [2] the target is AEA-DA lipid probe targets in Neuro2a cells (Mus musculus, UniProt Q78IK4). The following applies: protein Apool; Neuro2a cells; competitor 25 μM.
The target in assay [3] is AEA-DA lipid probe targets in Neuro2a cells (Mus musculus, UniProt Q99KI3). The conditions noted are these: competitor 25 μM.
For assay [4], the target named is T1, AEA-DA lipid probe targets in Neuro2a cells (Mus musculus, UniProt Q921T2).
T1 sequence (Q921T2 1-595): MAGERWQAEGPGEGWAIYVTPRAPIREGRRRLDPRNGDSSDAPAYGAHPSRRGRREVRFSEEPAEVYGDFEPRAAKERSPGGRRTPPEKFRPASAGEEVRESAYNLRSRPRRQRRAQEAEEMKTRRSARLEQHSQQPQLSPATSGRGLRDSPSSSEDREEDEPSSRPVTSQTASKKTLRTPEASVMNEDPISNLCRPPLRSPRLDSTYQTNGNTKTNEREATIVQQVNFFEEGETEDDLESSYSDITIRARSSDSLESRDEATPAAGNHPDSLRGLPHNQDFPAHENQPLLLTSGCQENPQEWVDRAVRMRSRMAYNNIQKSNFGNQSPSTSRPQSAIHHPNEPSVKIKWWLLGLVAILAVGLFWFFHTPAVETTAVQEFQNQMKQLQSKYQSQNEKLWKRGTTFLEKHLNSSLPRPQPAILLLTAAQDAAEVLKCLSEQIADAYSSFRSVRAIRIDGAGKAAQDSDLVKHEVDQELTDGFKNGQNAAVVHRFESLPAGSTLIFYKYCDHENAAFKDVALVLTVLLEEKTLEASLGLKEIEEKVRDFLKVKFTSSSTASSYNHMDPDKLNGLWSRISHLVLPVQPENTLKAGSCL

The target of assay [5] is T2, AEA-DA lipid probe targets in Neuro2a cells (Mus musculus, UniProt Q11011).
T2 sequence (Q11011 1-920): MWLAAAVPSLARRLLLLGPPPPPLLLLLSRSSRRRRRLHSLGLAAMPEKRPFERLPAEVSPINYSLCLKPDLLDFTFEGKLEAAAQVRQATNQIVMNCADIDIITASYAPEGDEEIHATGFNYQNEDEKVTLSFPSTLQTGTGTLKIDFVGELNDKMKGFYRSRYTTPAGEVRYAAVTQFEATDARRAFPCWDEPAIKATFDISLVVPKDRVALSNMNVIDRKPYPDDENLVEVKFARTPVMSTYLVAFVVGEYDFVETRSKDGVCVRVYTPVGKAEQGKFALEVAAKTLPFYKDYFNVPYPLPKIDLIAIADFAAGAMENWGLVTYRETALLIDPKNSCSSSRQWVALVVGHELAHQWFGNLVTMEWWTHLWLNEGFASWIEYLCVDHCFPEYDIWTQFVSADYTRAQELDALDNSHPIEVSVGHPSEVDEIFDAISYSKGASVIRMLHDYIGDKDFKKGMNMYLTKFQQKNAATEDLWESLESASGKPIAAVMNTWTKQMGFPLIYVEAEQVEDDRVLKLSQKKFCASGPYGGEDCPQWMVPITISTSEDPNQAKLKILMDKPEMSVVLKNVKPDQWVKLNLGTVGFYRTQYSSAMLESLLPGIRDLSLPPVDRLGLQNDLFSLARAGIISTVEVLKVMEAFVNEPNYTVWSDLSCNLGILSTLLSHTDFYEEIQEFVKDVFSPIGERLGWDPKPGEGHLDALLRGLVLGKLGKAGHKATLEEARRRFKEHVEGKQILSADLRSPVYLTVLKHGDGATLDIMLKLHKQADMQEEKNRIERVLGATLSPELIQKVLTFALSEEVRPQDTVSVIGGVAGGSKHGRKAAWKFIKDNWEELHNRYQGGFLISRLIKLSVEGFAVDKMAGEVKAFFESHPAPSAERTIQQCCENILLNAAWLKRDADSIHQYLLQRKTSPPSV

Assay [6] has as its target T3, AEA-DA lipid probe targets in Neuro2a cells (Mus musculus, UniProt P04223).
T3 sequence (P04223 22-369): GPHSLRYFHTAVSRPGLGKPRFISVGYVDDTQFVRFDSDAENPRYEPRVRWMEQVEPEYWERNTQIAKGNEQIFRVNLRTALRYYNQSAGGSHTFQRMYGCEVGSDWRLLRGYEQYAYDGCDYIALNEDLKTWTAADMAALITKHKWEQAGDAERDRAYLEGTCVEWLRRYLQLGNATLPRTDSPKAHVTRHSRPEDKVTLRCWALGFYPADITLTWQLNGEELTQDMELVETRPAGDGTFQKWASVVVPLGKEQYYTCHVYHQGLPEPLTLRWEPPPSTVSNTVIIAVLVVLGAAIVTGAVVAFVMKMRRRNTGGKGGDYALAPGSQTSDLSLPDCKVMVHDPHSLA

Assay [7] has as its target AEA-DA lipid probe targets in Neuro2a cells (Mus musculus, UniProt Q3UV70). The conditions noted are these: protein Pdp1; Neuro2a cells; competitor 25 μM.
In assay [8] the target is AEA-DA lipid probe targets in Neuro2a cells (Mus musculus, UniProt Q91VM5). The conditions noted are these: protein Rbmxl1, Neuro2a cells.
For assay [9], the target named is AEA-DA lipid probe targets in Neuro2a cells (Mus musculus, UniProt O88545).
Assay [10] has as its target AEA-DA lipid probe targets in Neuro2a cells (Mus musculus, UniProt Q9JKC6).
Assay [11] has as its target AEA-DA lipid probe targets in Neuro2a cells (Mus musculus, UniProt Q8BVU5). The conditions noted are these: protein Nudt9, Neuro2a cells.

Five compounds from patent US10168342B2, “Lipid probes and uses thereof” (THE SCRIPPS RESEARCH INSTITUTE, priority 2015, dated 2019) can be followed below.

Like-named read-outs stand apart in the source and are kept apart here.

AEA-DA lipid probe targets in Neuro2a cells (Mus musculus, UniProt Q91VM5), sequence (Q91VM5 whole entry): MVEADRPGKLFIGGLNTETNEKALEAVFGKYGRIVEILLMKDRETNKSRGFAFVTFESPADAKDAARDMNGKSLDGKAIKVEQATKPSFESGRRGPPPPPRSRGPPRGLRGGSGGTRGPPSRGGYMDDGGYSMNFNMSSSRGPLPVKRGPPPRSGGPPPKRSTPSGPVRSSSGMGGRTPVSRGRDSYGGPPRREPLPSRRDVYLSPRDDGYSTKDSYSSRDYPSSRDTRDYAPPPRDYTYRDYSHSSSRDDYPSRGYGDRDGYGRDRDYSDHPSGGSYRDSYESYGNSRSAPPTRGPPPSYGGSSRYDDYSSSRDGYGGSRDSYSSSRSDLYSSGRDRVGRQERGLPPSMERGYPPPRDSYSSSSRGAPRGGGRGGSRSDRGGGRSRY
AEA-DA lipid probe targets in Neuro2a cells (Mus musculus, UniProt Q99KI3), sequence (Q99KI3 whole entry): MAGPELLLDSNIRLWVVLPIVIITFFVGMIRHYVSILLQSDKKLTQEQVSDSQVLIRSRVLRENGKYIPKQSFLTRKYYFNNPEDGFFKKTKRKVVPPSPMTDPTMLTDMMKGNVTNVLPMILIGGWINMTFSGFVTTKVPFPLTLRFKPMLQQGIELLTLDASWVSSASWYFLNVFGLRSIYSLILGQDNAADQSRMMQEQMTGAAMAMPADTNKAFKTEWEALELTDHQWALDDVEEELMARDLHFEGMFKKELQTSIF
AEA-DA lipid probe targets in Neuro2a cells (Mus musculus, UniProt Q78IK4), sequence (Q78IK4 28-265): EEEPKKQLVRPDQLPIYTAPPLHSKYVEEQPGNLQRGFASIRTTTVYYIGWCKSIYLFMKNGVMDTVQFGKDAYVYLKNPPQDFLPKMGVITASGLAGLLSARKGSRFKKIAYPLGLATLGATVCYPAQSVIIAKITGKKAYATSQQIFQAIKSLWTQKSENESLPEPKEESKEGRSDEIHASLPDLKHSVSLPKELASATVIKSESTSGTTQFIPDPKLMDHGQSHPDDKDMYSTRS
AEA-DA lipid probe targets in Neuro2a cells (Mus musculus, UniProt Q3UV70), sequence (Q3UV70 72-538): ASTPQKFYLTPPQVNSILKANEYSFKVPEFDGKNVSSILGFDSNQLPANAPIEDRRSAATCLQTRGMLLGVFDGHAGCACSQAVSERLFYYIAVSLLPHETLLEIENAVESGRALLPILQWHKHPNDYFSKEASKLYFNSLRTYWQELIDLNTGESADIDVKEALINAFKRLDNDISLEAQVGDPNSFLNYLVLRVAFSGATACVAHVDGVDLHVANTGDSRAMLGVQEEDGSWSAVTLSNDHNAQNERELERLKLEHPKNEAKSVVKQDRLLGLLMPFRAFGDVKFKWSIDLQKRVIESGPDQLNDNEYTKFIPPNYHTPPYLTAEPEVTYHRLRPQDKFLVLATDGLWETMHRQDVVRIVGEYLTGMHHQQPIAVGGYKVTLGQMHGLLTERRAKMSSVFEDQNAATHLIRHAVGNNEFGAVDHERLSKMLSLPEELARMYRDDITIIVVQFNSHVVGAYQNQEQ
AEA-DA lipid probe targets in Neuro2a cells (Mus musculus, UniProt Q8BVU5), sequence (Q8BVU5 47-350): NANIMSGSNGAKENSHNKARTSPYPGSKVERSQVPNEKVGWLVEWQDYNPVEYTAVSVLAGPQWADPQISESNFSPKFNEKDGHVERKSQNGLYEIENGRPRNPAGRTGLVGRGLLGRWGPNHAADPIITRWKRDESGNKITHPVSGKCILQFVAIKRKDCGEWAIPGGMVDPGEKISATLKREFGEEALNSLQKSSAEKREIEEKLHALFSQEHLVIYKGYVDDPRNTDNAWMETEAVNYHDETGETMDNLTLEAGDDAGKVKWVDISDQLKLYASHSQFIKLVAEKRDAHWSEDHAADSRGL
AEA-DA lipid probe targets in Neuro2a cells (Mus musculus, UniProt Q8VCL2), sequence (Q8VCL2 42-255): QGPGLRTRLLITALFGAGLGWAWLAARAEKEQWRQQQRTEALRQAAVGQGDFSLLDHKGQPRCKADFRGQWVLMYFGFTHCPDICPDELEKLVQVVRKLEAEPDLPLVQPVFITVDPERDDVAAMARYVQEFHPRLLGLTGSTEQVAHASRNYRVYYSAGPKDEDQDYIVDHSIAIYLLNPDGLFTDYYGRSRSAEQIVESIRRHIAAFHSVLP
AEA-DA lipid probe targets in Neuro2a cells (Mus musculus, UniProt Q9JKC6), sequence (Q9JKC6 whole entry): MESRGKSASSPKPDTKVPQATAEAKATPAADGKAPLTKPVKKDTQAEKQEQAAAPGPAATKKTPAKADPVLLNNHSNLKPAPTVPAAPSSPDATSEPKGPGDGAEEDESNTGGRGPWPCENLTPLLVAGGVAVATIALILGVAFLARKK
AEA-DA lipid probe targets in Neuro2a cells (Mus musculus, UniProt O88545), sequence (O88545 whole entry): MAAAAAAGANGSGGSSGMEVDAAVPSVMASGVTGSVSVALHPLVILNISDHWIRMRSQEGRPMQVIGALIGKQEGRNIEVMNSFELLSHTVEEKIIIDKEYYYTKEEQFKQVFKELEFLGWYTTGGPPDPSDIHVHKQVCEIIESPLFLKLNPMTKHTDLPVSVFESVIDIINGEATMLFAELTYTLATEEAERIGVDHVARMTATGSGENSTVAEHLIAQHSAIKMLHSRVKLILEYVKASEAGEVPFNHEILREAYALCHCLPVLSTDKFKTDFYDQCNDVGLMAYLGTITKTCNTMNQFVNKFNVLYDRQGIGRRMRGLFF

Consider `C=CCN(C)CCCCCCOc1ccc(C(=O)c2ccc(Br)cc2)c(F)c1` [Ro 48-8071, reference compound], for which the “SILAC ratio Sco2” value in [1] was determined as 1.0. In addition, the “SILAC ratio (AEA-DA competition)” value in assay [2] is recorded as 0.9. For the same compound, in assay [3], the “SILAC ratio Emc3” value amounted to 1.5.

On to `CN1CCN(C(=O)c2[nH]c3ccc([N+](=O)[O-])cc3c2-c2ccccc2)CC1` [MJN228, (4-Methylpiperazin-1-yl)(5-nitro-3-phenyl-1H-indol-2-yl)methanone], for which the “SILAC ratio Tor1aip1” value is recorded as 1.3 in [4] (competitor 10 μM), 1.3 in assay [4] (competitor 25 μM), 1.3 in [4] (competitor 50 μM) and 2.0 in assay [4] (competitor 100 μM). The entries for the “SILAC ratio Npepps” value in assay [5] (competitor 25 μM) and in [5] (competitor 100 μM) were 1.5 and 4.3, respectively. Also, the results for the “SILAC ratio H2-K1” value in assay [6] (competitor 10 μM), in assay [6] (competitor 50 μM) and in [6] (competitor 100 μM) were 1.0, 0.9 and 1.0, respectively. The “SILAC ratio (AEA-DA competition)” value was 1.4 in [7], 1.1 in assay [8] (competitor 10 μM), 1.2 in assay [8] (competitor 25 μM) and 1.3 in [8] (competitor 100 μM). Moreover, the “SILAC ratio Cops6” value in [9] (competitor 100 μM) is recorded as 1.2.

On to `CCCCC/C=C\C/C=C\C/C=C\C/C=C\CCCC(=O)NCCO` [AEA, anandamide, reference compound], for which, in assay [4] (competitor 200 μM), the “SILAC ratio Tor1aip1” value worked out at 1.5. Besides, the “SILAC ratio Cend1” value in [10] (competitor 200 μM) was determined as 1.7. Besides, the “SILAC ratio Npepps” value in assay [5] (competitor 200 μM) is reported as 1.1. Besides, the “SILAC ratio H2-K1” value in assay [6] (competitor 200 μM) was 1.2. Moreover, the “SILAC ratio (AEA-DA competition)” value in assay [8] (competitor 200 μM) and in assay [11] (competitor 200 μM) was 1.0 throughout. The “SILAC ratio Cops6” value in assay [9] (competitor 200 μM) was 1.4.

As for `CN1CCN(C(=O)c2c(-c3ccccc3)c3cc([N+](=O)[O-])ccc3n2C)CC1` [KML110, (1-Methyl-5-nitro-3-phenyl-1H-indol-2-yl)(4-methylpiperazin-1-yl)methanone], the “SILAC ratio Cend1” value in assay [10] (competitor 25 μM) stood at 0.9. In assay [1], the “SILAC ratio Sco2” value was found to be 1.5. Moreover, the “SILAC ratio (AEA-DA competition)” value stood at 1.0 in assay [2] and 1.9 in [11] (competitor 25 μM). Besides, the “SILAC ratio Emc3” value in [3] is 1.0.

For the compound `O=C(/C=C/c1cccnc1)NCCCCC1CCN(C(=O)c2ccccc2)CC1` [FK-866, reference compound], the “SILAC ratio (AEA-DA competition)” value in assay [7] is 0.9.
